Experimental data from paper doi:10.1101/2020.11.19.390633v1 (biorxiv, 2020).

Biological target: murine wtIDH1 (KPC cells) (Mus musculus, UniProt O88844)
Test: cell-based IDH activity assay, NADPH synthesis, after IDH2 siRNA
Settings: KPC murine cells, […] MgSO4, […] h; allosteric

murine wtIDH1 (KPC cells), sequence (O88844 2-414): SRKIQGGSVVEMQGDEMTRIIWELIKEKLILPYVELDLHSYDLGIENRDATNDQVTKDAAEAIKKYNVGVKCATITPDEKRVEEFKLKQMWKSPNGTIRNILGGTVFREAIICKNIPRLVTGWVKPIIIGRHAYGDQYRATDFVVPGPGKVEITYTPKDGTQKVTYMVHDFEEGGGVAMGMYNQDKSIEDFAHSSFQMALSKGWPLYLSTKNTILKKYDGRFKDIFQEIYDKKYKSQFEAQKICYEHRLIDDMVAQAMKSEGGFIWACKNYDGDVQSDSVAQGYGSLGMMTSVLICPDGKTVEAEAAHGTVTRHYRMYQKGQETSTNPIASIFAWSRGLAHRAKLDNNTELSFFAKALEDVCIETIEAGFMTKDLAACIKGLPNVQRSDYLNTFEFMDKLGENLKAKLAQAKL

EC50: 110 ± 2 nM
Structure (SMILES): N#Cc1ccnc(N2C(=O)CC[C@H]2C(=O)N(c2cncc(F)c2)[C@H](C(=O)NC2CC(F)(F)C2)c2ccccc2Cl)c1 [AG-120]
